Source: the supplement of paper PMC10307832

Tests used:
Experiment in all cases: relative viability (nuclei count vs DMSO), 5 days (fraction); higher = more cells survive
NCI-H1975 = system: NCI-H1975
How it was run: (§1)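 Five library-drug doses in √10 steps were combined with a fixed anchor-drug dose, or a single drug was given alone, by pin tool to lung cancer cell lines in 1536-well plates the day after seeding. Nuclei were stained and counted after 5 days. Relative viability is the nuclei count in treated wells over that in vehicle wells, taken as the median of duplicate plates.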

LCLC-97TM1 = system: LCLC-97TM1
How it was run: as §1

NCI-H2170 = system: NCI-H2170
How it was run: as §1

EPLC-272H = system: EPLC-272H
How it was run: as §1

UMC-11 = system: UMC-11
How it was run: as §1

NCI-H1944 = system: NCI-H1944
How it was run: as §1

NCI-H2342 = system: NCI-H2342
How it was run: as §1

LC-2-ad = system: LC-2-ad
How it was run: as §1

SW 900 = system: SW 900
How it was run: as §1

NCI-H460 = system: NCI-H460
How it was run: as §1

NCI-H1915 = system: NCI-H1915
How it was run: as §1

HCC-366 = system: HCC-366
How it was run: as §1

NCI-H2085 = system: NCI-H2085
How it was run: as §1

NCI-H1755 = system: NCI-H1755
How it was run: as §1

NCI-H1793 = system: NCI-H1793
How it was run: as §1

SK-LU-1 = system: SK-LU-1
How it was run: as §1

LXF-289 = system: LXF-289
How it was run: as §1

A-427 = system: A-427
How it was run: as §1

HOP-62 = system: HOP-62
How it was run: as §1

HCC-78 = system: HCC-78
How it was run: as §1

NCI-H1792 = system: NCI-H1792
How it was run: as §1

COR-L 105 = system: COR-L 105
How it was run: as §1

LU99A = system: LU99A
How it was run: as §1

NCI-H358 = system: NCI-H358
How it was run: as §1

With `Clc1ccc(Nc2nnc(Cc3ccncc3)c3ccccc23)cc1` [Vatalanib] + CC(=O)c1c(C)c2cnc(Nc3ccc(N4CCNCC4)cn3)nc2n(C2CCCC2)c1=O [Palbociclib] (partner 0.5 µM) the relative viability (NCI-H1975; first compound 0.04 µM) was 0.651, the relative viability (NCI-H1975; first compound 0.1265 µM) was 0.5 and the relative viability (NCI-H1975; first compound 0.4 µM) was 0.768. For the same compound, the relative viability (NCI-H1975; first compound 1.265 µM) was 0.528, the relative viability (NCI-H1975; first compound 4 µM) was 0.489 and the relative viability (LCLC-97TM1; first compound 0.04 µM) was 0.172. For the same compound, the relative viability (LCLC-97TM1; first compound 0.1265 µM) was 0.252, the relative viability (LCLC-97TM1; first compound 0.4 µM) was 0.194 and the relative viability (LCLC-97TM1; first compound 1.265 µM) was 0.247. It also gave a relative viability (LCLC-97TM1; first compound 4 µM) of 0.21, a relative viability (NCI-H2170; first compound 0.04 µM) of 0.415 and a relative viability (NCI-H2170; first compound 0.1265 µM) of 0.443. For the same compound, the relative viability (NCI-H2170; first compound 0.4 µM) was 0.35, the relative viability (NCI-H2170; first compound 1.265 µM) was 0.376 and the relative viability (NCI-H2170; first compound 4 µM) was 0.384. For the same compound, the relative viability (EPLC-272H; first compound 0.04 µM) was 0.361, the relative viability (EPLC-272H; first compound 0.1265 µM) was 0.344 and the relative viability (EPLC-272H; first compound 0.4 µM) was 0.372. It also gave a relative viability (EPLC-272H; first compound 1.265 µM) of 0.315, a relative viability (EPLC-272H; first compound 4 µM) of 0.358 and a relative viability (UMC-11; first compound 0.04 µM) of 0.3. It also gave a relative viability (UMC-11; first compound 0.1265 µM) of 0.316, a relative viability (UMC-11; first compound 0.4 µM) of 0.34 and a relative viability (UMC-11; first compound 1.265 µM) of 0.356. For the same compound, the relative viability (UMC-11; first compound 4 µM) was 0.338, the relative viability (NCI-H1944; first compound 0.04 µM) was 0.324 and the relative viability (NCI-H1944; first compound 0.1265 µM) was 0.301. For the same compound, the relative viability (NCI-H1944; first compound 0.4 µM) was 0.364, the relative viability (NCI-H1944; first compound 1.265 µM) was 0.29 and the relative viability (NCI-H1944; first compound 4 µM) was 0.319. It also gave a relative viability (NCI-H2342; first compound 0.04 µM) of 0.489, a relative viability (NCI-H2342; first compound 0.1265 µM) of 0.507 and a relative viability (NCI-H2342; first compound 0.4 µM) of 0.46. It also gave a relative viability (NCI-H2342; first compound 1.265 µM) of 0.579, a relative viability (NCI-H2342; first compound 4 µM) of 0.593 and a relative viability (LC-2-ad; first compound 0.04 µM) of 0.494. The relative viability (LC-2-ad; first compound 0.1265 µM) was 0.448, the relative viability (LC-2-ad; first compound 0.4 µM) was 0.544 and the relative viability (LC-2-ad; first compound 1.265 µM) was 0.452. It also gave a relative viability (LC-2-ad; first compound 4 µM) of 0.471, a relative viability (SW 900; first compound 0.04 µM) of 0.504 and a relative viability (SW 900; first compound 0.1265 µM) of 0.523. The relative viability (SW 900; first compound 0.4 µM) was 0.534, the relative viability (SW 900; first compound 1.265 µM) was 0.614 and the relative viability (SW 900; first compound 4 µM) was 0.547. For the same compound, the relative viability (NCI-H460; first compound 0.04 µM) was 0.152, the relative viability (NCI-H460; first compound 0.1265 µM) was 0.169 and the relative viability (NCI-H460; first compound 0.4 µM) was 0.211. The relative viability (NCI-H460; first compound 1.265 µM) was 0.148, the relative viability (NCI-H460; first compound 4 µM) was 0.0922 and the relative viability (NCI-H1915; first compound 0.04 µM) was 0.533. The relative viability (NCI-H1915; first compound 0.1265 µM) was 0.526, the relative viability (NCI-H1915; first compound 0.4 µM) was 0.516 and the relative viability (NCI-H1915; first compound 1.265 µM) was 0.511. It also gave a relative viability (NCI-H1915; first compound 4 µM) of 0.511, a relative viability (HCC-366; first compound 0.04 µM) of 0.462 and a relative viability (HCC-366; first compound 0.1265 µM) of 0.348. The relative viability (HCC-366; first compound 0.4 µM) was 0.457, the relative viability (HCC-366; first compound 1.265 µM) was 0.391 and the relative viability (HCC-366; first compound 4 µM) was 0.355. The relative viability (NCI-H2085; first compound 0.04 µM) was 0.457, the relative viability (NCI-H2085; first compound 0.1265 µM) was 0.469 and the relative viability (NCI-H2085; first compound 0.4 µM) was 0.492. For the same compound, the relative viability (NCI-H2085; first compound 1.265 µM) was 0.433, the relative viability (NCI-H2085; first compound 4 µM) was 0.475 and the relative viability (NCI-H1755; first compound 0.04 µM) was 0.473. For the same compound, the relative viability (NCI-H1755; first compound 0.1265 µM) was 0.474, the relative viability (NCI-H1755; first compound 0.4 µM) was 0.457 and the relative viability (NCI-H1755; first compound 1.265 µM) was 0.445. It also gave a relative viability (NCI-H1755; first compound 4 µM) of 0.425, a relative viability (NCI-H1793; first compound 0.04 µM) of 0.274 and a relative viability (NCI-H1793; first compound 0.1265 µM) of 0.262. For the same compound, the relative viability (NCI-H1793; first compound 0.4 µM) was 0.324, the relative viability (NCI-H1793; first compound 1.265 µM) was 0.285 and the relative viability (NCI-H1793; first compound 4 µM) was 0.319. The relative viability (SK-LU-1; first compound 0.04 µM) was 0.398, the relative viability (SK-LU-1; first compound 0.1265 µM) was 0.415 and the relative viability (SK-LU-1; first compound 0.4 µM) was 0.499. The relative viability (SK-LU-1; first compound 1.265 µM) was 0.415, the relative viability (SK-LU-1; first compound 4 µM) was 0.385 and the relative viability (LXF-289; first compound 0.04 µM) was 0.611. The relative viability (LXF-289; first compound 0.1265 µM) was 0.544, the relative viability (LXF-289; first compound 0.4 µM) was 0.599 and the relative viability (LXF-289; first compound 1.265 µM) was 0.585. It also gave a relative viability (LXF-289; first compound 4 µM) of 0.556, a relative viability (A-427; first compound 0.04 µM) of 0.568 and a relative viability (A-427; first compound 0.1265 µM) of 0.482. The relative viability (A-427; first compound 0.4 µM) was 0.546, the relative viability (A-427; first compound 4 µM) was 0.508 and the relative viability (HOP-62; first compound 0.04 µM) was 0.459. For the same compound, the relative viability (HOP-62; first compound 0.1265 µM) was 0.436, the relative viability (HOP-62; first compound 0.4 µM) was 0.417 and the relative viability (HOP-62; first compound 1.265 µM) was 0.45. For the same compound, the relative viability (HOP-62; first compound 4 µM) was 0.481, the relative viability (HCC-78; first compound 0.04 µM) was 0.471 and the relative viability (HCC-78; first compound 0.1265 µM) was 0.459. For the same compound, the relative viability (HCC-78; first compound 0.4 µM) was 0.473, the relative viability (HCC-78; first compound 1.265 µM) was 0.422 and the relative viability (HCC-78; first compound 4 µM) was 0.485. For the same compound, the relative viability (NCI-H1792; first compound 0.04 µM) was 0.613, the relative viability (NCI-H1792; first compound 0.1265 µM) was 0.543 and the relative viability (NCI-H1792; first compound 0.4 µM) was 0.637. For the same compound, the relative viability (NCI-H1792; first compound 1.265 µM) was 0.738, the relative viability (NCI-H1792; first compound 4 µM) was 0.687 and the relative viability (COR-L 105; first compound 0.04 µM) was 0.404. The relative viability (COR-L 105; first compound 0.1265 µM) was 0.369, the relative viability (COR-L 105; first compound 0.4 µM) was 0.402 and the relative viability (COR-L 105; first compound 1.265 µM) was 0.441. For the same compound, the relative viability (COR-L 105; first compound 4 µM) was 0.396, the relative viability (LU99A; first compound 0.04 µM) was 0.418 and the relative viability (LU99A; first compound 0.1265 µM) was 0.383. For the same compound, the relative viability (LU99A; first compound 0.4 µM) was 0.435, the relative viability (LU99A; first compound 1.265 µM) was 0.355 and the relative viability (LU99A; first compound 4 µM) was 0.415. It also gave a relative viability (NCI-H358; first compound 0.04 µM) of 0.139, a relative viability (NCI-H358; first compound 0.1265 µM) of 0.131 and a relative viability (NCI-H358; first compound 0.4 µM) of 0.149. For the same compound, the relative viability (NCI-H358; first compound 1.265 µM) was 0.123 and the relative viability (NCI-H358; first compound 4 µM) was 0.136.
